US8895568B2, “Compositions comprising substituted pteridines as agrochemicals” (Dow AgroSciences LLC, priority 2009, dated 2014)
Where two headings read alike, the source gives them in different places.

Assays:
Format in all cases: in vivo
Colletotricum lagenarium = assay: Cucumber Anthracnose (COLLLA), foliar spray, percent disease control
Experimental: The activity of the compounds as effective fungicides was determined by applying the compounds to plants and observing control of fungal disease. The compounds were formulated at 200 ppm in 10 vol. % acetone plus 90 vol. % Triton X water (deionized water 99.99 wt %+0.01 wt % Triton X100), giving a “formulated test compound.” In a few cases, compounds were formulated at 75 or 8.3 ppm rather than 200 ppm in 10 vol. % acetone plus 90 vol. % Triton X water (deionized water 99.99 wt. %+0.01 wt. % Triton X100), giving a “formulated test compound.” Formulated test compounds were applied to plants using a turn table sprayer fitted with two opposing air atomization nozzles which delivered approximately 1500 L/ha of spray volume. All plants were inoculated with spores of the fungus the day after treatment, then incubated in an environment conducive to disease development. Disease severity was evaluated 4 to 15 days later, depending on the disease and the speed of disease development. The following experiments were performed in the laboratory to determine the fungicidal efficacy of the compounds of the invention. Cucumber Anthracnose (causal agent Colletotricum lagenarium; Bayer code COLLLA): Cucumber plants (variety Bush Champion) were grown from seed in a soil-less peat-based potting mixture (Metromix) until the first true leaf was 20-80% expanded. Each pot contained 1 seedling. These plants were sprayed until wet with the formulated test compound. On the following day, the leaves were inoculated with an aqueous spore suspension of Colletotricum lagenarium and the plants were kept in high humidity for one day to permit spores to germinate and infect the leaf. The plants were then transferred to a growth chamber until disease developed on untreated control plants. […] The effectiveness of the test compounds at controlling disease when sprayed on leaves was determined by assessing the severity of disease on treated plants, then converting the severity to percent control based on the level of disease on untreated, inoculated plants. Data are the level (in percent) at which the given disease was controlled when the given compound was applied to the foliage of the plants at 200 ppm. In a few cases (noted in the table) the compound was applied to the plants at 75 ppm or 8.3 ppm.

[1] = system: Pseudoperonospora cubensis; assay: Cucumber Downy Mildew (PSPECU), foliar spray, percent disease control; conditions: read-out: PSPECU percent control
Experimental: The activity of the compounds as effective fungicides was determined by applying the compounds to plants and observing control of fungal disease. The compounds were formulated at 200 ppm in 10 vol. % acetone plus 90 vol. % Triton X water (deionized water 99.99 wt %+0.01 wt % Triton X100), giving a “formulated test compound.” In a few cases, compounds were formulated at 75 or 8.3 ppm rather than 200 ppm in 10 vol. % acetone plus 90 vol. % Triton X water (deionized water 99.99 wt. %+0.01 wt. % Triton X100), giving a “formulated test compound.” Formulated test compounds were applied to plants using a turn table sprayer fitted with two opposing air atomization nozzles which delivered approximately 1500 L/ha of spray volume. All plants were inoculated with spores of the fungus the day after treatment, then incubated in an environment conducive to disease development. Disease severity was evaluated 4 to 15 days later, depending on the disease and the speed of disease development. The following experiments were performed in the laboratory to determine the fungicidal efficacy of the compounds of the invention. Cucumber Downy Mildew (causal agent Pseudoperonospora cubensis; Bayer code […]): Cucumber plants (variety Bush Champion) were grown from seed in a soil-less peat-based potting mixture (Metromix) until the first true leaf was 20-80% expanded. Each pot contained 1 seedling. These plants were sprayed until wet with the formulated test compound. On the following day, the leaves were inoculated with an aqueous suspension of downy mildew sporangia and the plants were kept in high humidity for one day to permit sporangia to germinate and infect the leaf. The plants were then incubated in a growth chamber until disease developed on untreated control plants. […] The effectiveness of the test compounds at controlling disease when sprayed on leaves was determined by assessing the severity of disease on treated plants, then converting the severity to percent control based on the level of disease on untreated, inoculated plants. Data are the level (in percent) at which the given disease was controlled when the given compound was applied to the foliage of the plants at 200 ppm. In a few cases (noted in the table) the compound was applied to the plants at 75 ppm or 8.3 ppm.

[2] = system: DROSME, AEDSAE, LAPHEG, or HELIVI; assay: Insecticidal activity, active if any of DROSME, AEDSAE, LAPHEG or HELIVI was controlled at 80% or more; conditions: read-out: >80% mortality on any insect species @ 4000 ppm
Cochliobolus sativus = assay: Spot Blotch of Wheat (COCHSA), foliar spray, percent disease control; conditions: Bipolaris sorokiniana, read-out: COCHSA percent control

| Structure (SMILES) | pest or weed control at 200 µg/mL (Colletotricum lagenarium; foliar) [%] | pest or weed control at 200 µg/mL ([1]; foliar) [%] | pest or weed control at 4000 ppm [2] [%] | pest or weed control at 200 µg/mL (Cochliobolus sativus; foliar) [%] | pest or weed control at 200 µg/mL (Colletotricum lagenarium; foliar spray) [%] | pest or weed control at 200 µg/mL ([1]; foliar spray) [%] | pest or weed control at 200 µg/mL (Cochliobolus sativus; foliar spray) [%] |
| --- | --- | --- | --- | --- | --- | --- | --- |
| FC(F)(F)c1cc(Cl)nc(Oc2ccc(CCNc3ncnc4nccnc34)cc2)c1 [Compound 90, {2-[4-(6-chloro-4-trifluoromethylpyridin-2-yloxy)-phenyl]-ethyl}-pteridin-4-yl-amine] | 0 to 49 | 80 to 100 | > 80 | 0 to 49 | – | – | – |
| CCOc1cc(CCNc2ncnc3nccnc23)ccc1Oc1ccc(C(F)(F)F)cn1 [Compound 157] | 0 to 49 | 80 to 100 | > 80 | 0 to 49 | – | – | – |
| Cc1ccnc(Oc2ccc(CCNc3ncnc4nccnc34)cc2)c1 [Compound 42] | 80 to 100 | 80 to 100 | > 80 | 0 to 49 | – | – | – |
| Cc1cnc(Oc2ccc(CCNc3ncnc4nccnc34)cc2)s1 [Compound 66] | 80 to 100 | 80 to 100 | > 80 | 50 to 79 | – | – | – |
| CC1=CSc2cc(CCNc3ncnc4nccnc34)ccc2O1 [Compound 231] | – | – | > 80 | – | 0 to 49 | 0 to 49 | 0 to 49 |
| Cc1cc(Oc2ccc(C(F)(F)F)cn2)c(C)cc1CCNc1ncnc2nccnc12 [Compound 156] | 0 to 49 | 80 to 100 | > 80 | 0 to 49 | – | – | – |
| Clc1nccc(Oc2ccc(CCNc3ncnc4nccnc34)cc2)n1 [Compound 24] | 50 to 79 | 80 to 100 | – | 0 to 49 | – | – | – |
| Fc1nc(F)c(F)c(Oc2ccc(CCNc3ncnc4nccnc34)cc2)c1F [Compound 94] | 50 to 79 | 50 to 79 | – | 0 to 49 | – | – | – |
| Brc1nsc(Oc2ccc(CCNc3ncnc4nccnc34)cc2)n1 [Compound 33] | 0 to 49 | 0 to 49 | – | 0 to 49 | – | – | – |
| Oc1cccc(OCCNc2ncnc3nccnc23)c1 [Compound 81] | 0 to 49 | 80 to 100 | – | 0 to 49 | – | – | – |
| CC(C)Oc1cc(CCNc2ncnc3nccnc23)ccc1Oc1cc(C(F)(F)F)ccn1 [Compound 180, {2-[3-(Isopropoxy)-4-(4-trifluoromethyl-pyridin-2-yloxy)-phenyl]-ethyl}-pteridin-4-ylamine] | 50 to 79 | 80 to 100 | – | 0 to 49 | – | – | – |
| Oc1ccc(CCNc2ncnc3nccnc23)cc1F [Compound 177] | 0 to 49 | 0 to 49 | – | 0 to 49 | – | – | – |
| Fc1cnc(C(F)(F)F)c(F)c1Oc1ccc(CCNc2ncnc3nccnc23)cc1 [Compound 72] | 50 to 79 | 80 to 100 | – | 0 to 49 | – | – | – |
| COc1ccc(CCNc2ncnc3nccnc23)cc1Cl [Compound 158] | 0 to 49 | 0 to 49 | – | 0 to 49 | – | – | – |
| Cc1c(CCNc2ncnc3nccnc23)ccc(Oc2c(F)cnc(C(F)(F)F)c2F)c1C [Compound 149] | 0 to 49 | 80 to 100 | – | 0 to 49 | – | – | – |
| COc1cc(C)c(CCNc2ncnc3nccnc23)cc1C [Compound 151] | 0 to 49 | 80 to 100 | – | 0 to 49 | – | – | – |
| c1ccc(OCc2nnc(Oc3ccc(CCNc4ncnc5nccnc45)cc3)s2)cc1 [Compound 27] | 0 to 49 | 0 to 49 | – | 0 to 49 | – | – | – |
